Measured values: ChEMBL document CHEMBL5370643, “Discovery of MK-1468: A Potent, Kinome-Selective, Brain-Penetrant Amidoisoquinoline LRRK2 Inhibitor for the Potential Treatment of Parkinson's Disease” (J Med Chem, 2023)

Key:
[1] = Toxicity in Wistar-Han rat assessed as tolerance at 50 to 300 mg/kg, qd; assay type: organism-based; conditions: in vivo, dose 50-300 mg/kg
[2] = target: hERG (Homo sapiens, UniProt Q12809); test: (§1) Inhibition of hERG expressed in CHO cells by QPatch voltage clamp assay; conditions: human, CHO cells expressing hERG
[3] = target: Voltage-gated inwardly rectifying potassium channel KCNH2 (Homo sapiens, UniProt Q12809); test: as §1
[4] = MRT in Wistar-Han rat at 2 mg/kg, iv measured after 24 hrs by LC-MS/MS analysis; assay type: ADME, organism-based; conditions: in vivo
[5] = AUC in Wistar-Han rat at 300 mg/kg by LC-MS/MS analysis; assay type: ADME, organism-based; parameters: dose 300 mg/kg; conditions: in vivo
[6] = target: Voltage-dependent L-type calcium channel subunit alpha-1C (Homo sapiens, UniProt Q13936); test: Inhibition of human Cav1.2
[7] = Total clearance in Wistar-Han rat at 2 mg/kg, iv measured after 24 hrs by LC-MS/MS analysis; assay type: ADME, organism-based; conditions: in vivo
[8] = AUC in Wistar-Han rat at 50 mg/kg by LC-MS/MS analysis; assay type: ADME, organism-based; parameters: dose 50 mg/kg; conditions: in vivo
[9] = Intrinsic clearance in Beagle dog at […], iv measured after 24 hrs by LC-MS/MS analysis; assay type: ADME, organism-based, Canis lupus familiaris; conditions: in vivo, dose 0.25 mg/kg
[10] = Unbound brain-to-plasma concentration ratio in iv dosed Wistar-Han rat administered as cassette dose by LC-MS/MS analysis; assay type: ADME, organism-based; conditions: read-out: K(p,uu,brain)
[11] = Cardiotoxicity in guinea pig assessed as increase in PR interval at 20 to 50 mg/kg, iv administered continuously for 20 min by ECG analysis; assay type: toxicity, organism-based, Cavia porcellus; conditions: in vivo, dose 20-50 mg/kg
[12] = target: Leucine-rich repeat serine/threonine-protein kinase 2 (Homo sapiens) (UniProt Q5S007); test: Inhibition of LRRK2 in human PBMC using LRRKtide peptide as substrate assessed as Ser935 dephosphorylation preincubated with compound for 15 mins followed by substrate addition and measured after 90 mins in presence of ATP by TR-FRET assay; assay type: cell-based; conditions: time 105.0 min
[13] = target: Leucine-rich repeat serine/threonine-protein kinase 2 (Homo sapiens, UniProt Q5S007, G2019S); test: Inhibition of recombinant N-terminal GST-fused LRRK2 […] mutant (970 to 2527 residues) (unknown origin) using LRRKtide peptide as substrate assessed as inhibition of substrate phosphorylation preincubated with compound for 15 mins followed by substrate addition and measured after 90 mins in presence of ATP by TR-FRET assay
[14] = Total clearance in Beagle dog at […], iv measured after 24 hrs by LC-MS/MS analysis; assay type: ADME, organism-based, Canis lupus familiaris; conditions: in vivo, dose 0.25 mg/kg
[15] = Oral bioavailability in Beagle dog at 1 mg/kg measured after 24 hrs by LC-MS/MS analysis; assay type: ADME, organism-based, Canis lupus familiaris; conditions: in vivo
[16] = Oral bioavailability in rhesus monkey at 2 mg/kg measured after 24 hrs by LC-MS/MS analysis; assay type: ADME, organism-based, Macaca mulatta; conditions: in vivo
[17] = tested on: mouse BCRP; test: Efflux ratio of apparent permeability across basolateral to apical over apical to basolateral side in MDCK-II cells transfected with mouse BCRP incubated for 3 hrs by LC-MS/MS analysis; conditions: dog
[18] = Oral bioavailability in Wistar-Han rat at 5 mg/kg measured after 24 hrs by LC-MS/MS analysis; assay type: ADME, organism-based; conditions: in vivo
[19] = MRT in Beagle dog at […], iv measured after 24 hrs by LC-MS/MS analysis; assay type: ADME, organism-based, Canis lupus familiaris; conditions: in vivo, dose 0.25 mg/kg
[20] = Total clearance in rhesus monkey at 1 mg/kg, iv measured after 24 hrs by LC-MS/MS analysis; assay type: ADME, organism-based, Macaca mulatta; conditions: in vivo
[21] = target: KCNQ1/KCNE1 (IKs, Kv7.1/MinK) (Homo sapiens, UniProt P15382+P51787); test: Inhibition of human KCNQ1/KCNE1 expressed in HEK293 cells at 30 uM by QPatch voltage clamp assay relative to control; assay type: cell-based; conditions: HEK293 cells expressing human KCNQ1/KCNE1
[22] = Drug metabolism in dog assessed as amide hydrolysis mediated metabolite formation by MetID analysis; assay type: ADME, Canis lupus familiaris
[23] = target: Nav1.5 (Homo sapiens, UniProt Q14524); test: (§2) Inhibition of human Nav1.5 expressed in HEK293 cells by QPatch voltage clamp assay; assay type: cell-based; conditions: human, HEK293 cells expressing human Nav1.5
[24] = target: Sodium channel protein type 5 subunit alpha (Homo sapiens, UniProt Q14524); test: as §2; assay type: cell-based
[25] = MRT in rhesus monkey at 1 mg/kg, iv measured after 24 hrs by LC-MS/MS analysis; assay type: ADME, organism-based, Macaca mulatta; conditions: in vivo
[26] = Lipophilicity, logD of compound at pH 7 by HT-HPLC/DAD analysis; assay type: physicochemical; conditions: buffer
[27] = Cardiotoxicity in guinea pig assessed as increase in QTc interval at 20 to 50 mg/kg, iv administered continuously for 20 min by ECG analysis; assay type: toxicity, organism-based, Cavia porcellus; conditions: in vivo, dose 20-50 mg/kg
[28] = tested on: rat Mdrl1 P-gp; test: Efflux ratio of apparent permeability across basolateral to apical over apical to basolateral side in MDCK cells transfected with rat Mdrl1 P-gp incubated for 3 hrs by LC-MS/MS analysis; conditions: dog, MDCK-MDR1
[29] = tested on: rat Mdr1a P-gp; test: Apparent permeability across apical to basolateral side in LLC-PK1 cells transfected with rat Mdr1a P-gp incubated for 3 hrs by LC-MS/MS analysis; conditions: pig
[30] = target: MAP/microtubule affinity-regulating kinase 3 (Homo sapiens, UniProt P27448); test: Inhibition of recombinant human full length MARK3 expressed in insect cells using CHKtide as substrate preincubated with compound for 15 mins followed by substrate addition and measured after 15 mins in the presence of ATP by scintillation based radiometric LeadHunter assay
[31] = Intrinsic clearance in Wistar-Han rat at 2 mg/kg, iv measured after 24 hrs by LC-MS/MS analysis; assay type: ADME, organism-based; conditions: in vivo
[32] = Cardiotoxicity in guinea pig assessed as increase in QRS interval at 20 to 50 mg/kg, iv administered continuously for 20 min by ECG analysis; assay type: toxicity, organism-based, Cavia porcellus; conditions: in vivo, dose 20-50 mg/kg
[33] = Intrinsic clearance in rhesus monkey at 1 mg/kg, iv measured after 24 hrs by LC-MS/MS analysis; assay type: ADME, organism-based, Macaca mulatta; conditions: in vivo

Sequence of Voltage-dependent L-type calcium channel subunit alpha-1C (Q13936 whole entry): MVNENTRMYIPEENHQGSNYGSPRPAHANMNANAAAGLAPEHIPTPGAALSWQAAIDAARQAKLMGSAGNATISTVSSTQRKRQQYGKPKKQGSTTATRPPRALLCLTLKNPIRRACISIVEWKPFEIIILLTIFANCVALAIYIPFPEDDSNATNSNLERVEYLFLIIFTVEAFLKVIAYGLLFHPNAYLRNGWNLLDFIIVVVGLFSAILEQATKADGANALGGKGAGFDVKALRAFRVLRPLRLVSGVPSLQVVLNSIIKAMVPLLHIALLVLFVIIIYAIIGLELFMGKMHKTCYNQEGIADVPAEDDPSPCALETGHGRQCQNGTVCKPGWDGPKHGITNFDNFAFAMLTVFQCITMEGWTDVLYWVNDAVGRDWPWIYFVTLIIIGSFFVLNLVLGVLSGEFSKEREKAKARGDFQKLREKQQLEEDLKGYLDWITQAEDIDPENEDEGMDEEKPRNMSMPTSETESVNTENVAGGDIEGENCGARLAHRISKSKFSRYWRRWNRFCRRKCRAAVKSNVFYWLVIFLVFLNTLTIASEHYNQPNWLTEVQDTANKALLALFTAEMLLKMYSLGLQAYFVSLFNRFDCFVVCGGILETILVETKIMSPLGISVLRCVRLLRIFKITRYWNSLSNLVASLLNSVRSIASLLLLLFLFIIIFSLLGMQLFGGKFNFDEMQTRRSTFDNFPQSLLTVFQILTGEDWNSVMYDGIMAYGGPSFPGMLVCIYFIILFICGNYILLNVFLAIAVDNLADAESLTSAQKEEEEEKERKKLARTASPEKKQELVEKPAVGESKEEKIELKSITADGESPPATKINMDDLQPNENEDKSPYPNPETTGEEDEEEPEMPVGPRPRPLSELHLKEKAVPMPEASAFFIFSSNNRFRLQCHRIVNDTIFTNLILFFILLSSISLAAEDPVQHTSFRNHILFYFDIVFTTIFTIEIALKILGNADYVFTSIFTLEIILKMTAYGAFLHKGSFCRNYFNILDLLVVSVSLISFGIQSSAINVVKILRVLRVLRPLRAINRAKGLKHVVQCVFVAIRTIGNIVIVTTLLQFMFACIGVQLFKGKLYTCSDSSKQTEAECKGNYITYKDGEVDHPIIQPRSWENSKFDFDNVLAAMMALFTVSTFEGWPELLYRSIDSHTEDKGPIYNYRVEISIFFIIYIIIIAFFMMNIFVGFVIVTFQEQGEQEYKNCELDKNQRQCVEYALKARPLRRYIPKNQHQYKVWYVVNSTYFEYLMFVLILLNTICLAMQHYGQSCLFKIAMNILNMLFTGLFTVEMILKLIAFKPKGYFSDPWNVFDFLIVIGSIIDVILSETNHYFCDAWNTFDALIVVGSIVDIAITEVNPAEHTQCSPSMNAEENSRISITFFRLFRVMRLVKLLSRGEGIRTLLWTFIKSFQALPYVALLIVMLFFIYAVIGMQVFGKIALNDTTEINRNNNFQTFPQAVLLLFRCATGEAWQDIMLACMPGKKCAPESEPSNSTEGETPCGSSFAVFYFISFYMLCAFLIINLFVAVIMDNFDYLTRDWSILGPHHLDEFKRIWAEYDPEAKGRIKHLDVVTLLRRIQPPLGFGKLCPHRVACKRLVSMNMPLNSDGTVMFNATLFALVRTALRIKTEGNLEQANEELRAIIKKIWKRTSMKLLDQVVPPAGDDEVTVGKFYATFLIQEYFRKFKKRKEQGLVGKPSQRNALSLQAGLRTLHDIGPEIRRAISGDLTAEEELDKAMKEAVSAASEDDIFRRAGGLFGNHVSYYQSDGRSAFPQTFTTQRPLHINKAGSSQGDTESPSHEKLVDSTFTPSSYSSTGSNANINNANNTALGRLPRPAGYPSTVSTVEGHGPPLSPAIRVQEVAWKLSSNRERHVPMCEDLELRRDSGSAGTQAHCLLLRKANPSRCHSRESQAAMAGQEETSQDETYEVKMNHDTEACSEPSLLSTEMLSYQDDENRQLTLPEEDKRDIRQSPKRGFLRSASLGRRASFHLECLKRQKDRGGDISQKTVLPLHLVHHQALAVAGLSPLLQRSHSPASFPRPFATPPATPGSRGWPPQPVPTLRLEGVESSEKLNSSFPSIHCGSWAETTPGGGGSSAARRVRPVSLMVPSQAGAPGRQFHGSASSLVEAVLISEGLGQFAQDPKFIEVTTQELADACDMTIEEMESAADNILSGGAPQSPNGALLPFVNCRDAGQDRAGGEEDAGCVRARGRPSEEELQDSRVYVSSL
Sequence of Sodium channel protein type 5 subunit alpha (Q14524 whole entry): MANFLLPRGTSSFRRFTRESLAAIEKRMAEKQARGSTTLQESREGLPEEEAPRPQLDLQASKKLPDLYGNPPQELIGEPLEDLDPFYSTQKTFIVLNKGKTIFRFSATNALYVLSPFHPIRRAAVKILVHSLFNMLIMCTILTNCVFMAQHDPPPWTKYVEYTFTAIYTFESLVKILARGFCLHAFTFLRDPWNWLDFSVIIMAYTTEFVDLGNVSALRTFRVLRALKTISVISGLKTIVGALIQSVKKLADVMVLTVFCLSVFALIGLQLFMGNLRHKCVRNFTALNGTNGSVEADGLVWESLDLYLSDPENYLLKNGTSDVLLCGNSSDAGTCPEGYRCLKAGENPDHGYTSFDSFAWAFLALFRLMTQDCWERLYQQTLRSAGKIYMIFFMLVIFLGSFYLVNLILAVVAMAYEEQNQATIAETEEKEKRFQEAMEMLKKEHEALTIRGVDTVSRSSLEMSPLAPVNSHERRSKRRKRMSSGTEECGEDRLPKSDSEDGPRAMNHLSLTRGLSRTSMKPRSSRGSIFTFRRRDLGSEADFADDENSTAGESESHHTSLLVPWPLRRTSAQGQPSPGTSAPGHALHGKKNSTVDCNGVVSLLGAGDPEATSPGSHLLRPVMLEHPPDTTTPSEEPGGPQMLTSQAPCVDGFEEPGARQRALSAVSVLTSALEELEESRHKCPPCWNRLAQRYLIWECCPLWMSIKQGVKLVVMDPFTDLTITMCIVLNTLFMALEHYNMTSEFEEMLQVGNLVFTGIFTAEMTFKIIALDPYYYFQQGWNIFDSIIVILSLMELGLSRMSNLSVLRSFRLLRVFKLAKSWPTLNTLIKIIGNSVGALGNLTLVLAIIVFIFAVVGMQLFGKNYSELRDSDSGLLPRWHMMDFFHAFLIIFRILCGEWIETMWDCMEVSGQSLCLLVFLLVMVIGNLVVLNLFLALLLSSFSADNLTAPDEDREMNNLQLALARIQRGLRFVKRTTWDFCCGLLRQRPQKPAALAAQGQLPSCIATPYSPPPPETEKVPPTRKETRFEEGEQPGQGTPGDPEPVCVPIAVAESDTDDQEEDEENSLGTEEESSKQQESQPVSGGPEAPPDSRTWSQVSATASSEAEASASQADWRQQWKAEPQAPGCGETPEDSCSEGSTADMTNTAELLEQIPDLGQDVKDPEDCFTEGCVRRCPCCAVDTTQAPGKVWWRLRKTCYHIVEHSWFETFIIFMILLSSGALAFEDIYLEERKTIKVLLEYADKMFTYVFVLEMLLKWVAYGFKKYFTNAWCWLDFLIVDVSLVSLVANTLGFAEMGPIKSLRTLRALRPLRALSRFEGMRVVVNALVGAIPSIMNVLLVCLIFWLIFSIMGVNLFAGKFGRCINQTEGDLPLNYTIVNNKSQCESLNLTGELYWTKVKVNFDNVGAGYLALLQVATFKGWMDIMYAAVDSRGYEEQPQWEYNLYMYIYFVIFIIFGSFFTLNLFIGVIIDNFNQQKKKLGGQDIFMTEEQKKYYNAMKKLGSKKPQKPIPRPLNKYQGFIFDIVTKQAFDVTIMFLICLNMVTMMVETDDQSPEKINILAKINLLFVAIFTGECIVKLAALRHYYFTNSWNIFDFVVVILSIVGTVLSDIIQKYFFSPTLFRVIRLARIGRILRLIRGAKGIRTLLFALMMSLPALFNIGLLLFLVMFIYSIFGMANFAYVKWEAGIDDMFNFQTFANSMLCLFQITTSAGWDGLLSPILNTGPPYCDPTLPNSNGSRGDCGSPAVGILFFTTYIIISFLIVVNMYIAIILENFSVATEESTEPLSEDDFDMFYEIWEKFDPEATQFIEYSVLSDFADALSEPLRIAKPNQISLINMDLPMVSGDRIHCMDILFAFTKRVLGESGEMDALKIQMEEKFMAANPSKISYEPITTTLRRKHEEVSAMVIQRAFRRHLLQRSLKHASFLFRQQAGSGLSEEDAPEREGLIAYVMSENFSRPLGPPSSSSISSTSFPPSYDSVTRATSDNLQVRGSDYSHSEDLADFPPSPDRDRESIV
Sequence of MAP/microtubule affinity-regulating kinase 3 (P27448 whole entry): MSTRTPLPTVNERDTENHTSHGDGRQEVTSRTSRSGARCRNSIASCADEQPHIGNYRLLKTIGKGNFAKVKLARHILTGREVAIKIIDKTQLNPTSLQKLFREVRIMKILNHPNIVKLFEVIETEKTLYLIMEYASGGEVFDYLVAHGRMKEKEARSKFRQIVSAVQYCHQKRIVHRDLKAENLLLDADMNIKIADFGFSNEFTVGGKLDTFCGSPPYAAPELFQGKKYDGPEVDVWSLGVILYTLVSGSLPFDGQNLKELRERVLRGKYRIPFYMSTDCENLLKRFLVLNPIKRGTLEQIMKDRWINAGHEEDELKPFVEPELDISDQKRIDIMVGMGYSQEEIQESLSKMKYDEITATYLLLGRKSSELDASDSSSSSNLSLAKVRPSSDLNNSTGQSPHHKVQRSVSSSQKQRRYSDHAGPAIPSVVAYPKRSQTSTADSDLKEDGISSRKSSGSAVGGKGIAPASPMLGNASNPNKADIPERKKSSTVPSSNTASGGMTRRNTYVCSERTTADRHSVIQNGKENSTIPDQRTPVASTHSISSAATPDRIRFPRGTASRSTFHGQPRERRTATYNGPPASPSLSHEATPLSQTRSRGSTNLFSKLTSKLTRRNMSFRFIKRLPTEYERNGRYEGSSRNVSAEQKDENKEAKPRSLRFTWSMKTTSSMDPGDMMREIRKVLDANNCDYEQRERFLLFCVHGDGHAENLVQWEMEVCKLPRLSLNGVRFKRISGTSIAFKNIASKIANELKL

MRT [4]: 9 h
AUC [5]: 458 µM·h
clearance [7]: 11 mL/min/kg
AUC [8]: 111 µM·h
CL [9]: 341 mL/min/kg
Kp uu [10]: 0.6
fIC50 [12]: 2.8 nM
IC50 [13]: 0.003 µM
clearance at 24 h [14]: 9 mL/min/kg
bioavailability [15]: 81%
bioavailability [16]: 21%
efflux ratio at 3 h [17]: 1.1
bioavailability [18]: 100%
MRT at 24 h [19]: 33 h
clearance [20]: 13 mL/min/kg
inhibition at 30 µM [21]: 15%
Drug metabolism [22]: Metabolite_Notdetected
MRT [25]: 10 h
logD [26]: 3
efflux ratio at 3 h [28]: 1.5
Papp A→B at 3 h [29]: 30 ×10⁻⁶ cm/s
IC50 [30]: 0.029 µM
CL [31]: 271 mL/min/kg
CL [33]: 341 mL/min/kg
SMILES: C[C@@]1(N2CCC(c3cc4cc(NC(=O)C5CC56CC6)ncc4cc3Cl)CC2)COC[C@@H]1O (stereo partly drawn)
Activity [1]: Non-Toxic
IC20 [2]: 1.3 µM
IC50 [3]: 3.7 µM
inhibition (INH) [6]: Not Active
Activity [11]: Toxic
IC20 [23]: 10 µM
IC50 [24]: 28 µM
Activity [27]: Toxic
Activity [32]: Toxic
